{"source": "patent US20220062166A1", "about": "“Self-Gelling Solutions for Administration of Therapeutics to the Inner Ear” (Spiral Therapeutics, Inc., priority 2019, published 2022)", "key": {"HEI-OC1 cells": {"tested_on": "HEI-OC1 cells", "assay": "Release of mitochondrial cyt c in HEI-OC1 cells with CisPt (flow cytometry)", "assay_type": "cell-based", "experimental": "Flow cytometry was also used to characterize the effect of LPT99 in the release of mitochondrial cyt c in HEI-OC1 cells in vitro with CisPt prevention. Results\n(§1) The effect of LPT99 on proliferation of non-apoptotic cells was studied. A549 cells were cultured in the presence of LPT99 for up to 6 days; the cell number was monitored by flow cytometry, and doubling time was calculated."}, "[1]": {"assay": "GLP acute systemic toxicity study, single IP dose, Sprague-Dawley rats", "assay_type": "in vivo, rat", "experimental": "A GLP acute systemic toxicity study was conducted with LPT99 administered via IP injection in Sprague-Dawley rats. The acute systemic toxicity study was preceded by a non-GLP maximum tolerated dose (MTD) toxicity study, via the same administration and test system, which determined the MTD of LTP99 to be 1000 mg/kg.\n(§2) LPT99 was suspended in vehicle [0.5% w/v methylcellulose and 0.1% v/v TWEEN® 80 in Milli-Q water] and administered intraperitoneally to Sprague-Dawley rats as a single dose at the doses of 100 (low—G2/G2TK), 300 (mid—G3/G3TK), and 750 (high—G4/G4TK) mg/kg body weight. The rats in vehicle control groups (G1/G1TK) received the vehicle alone. The dose volume administered was at an equivolume of 10 mL/kg body weight for all groups.\n(§3) The main toxicity groups consist of 15 rats/sex/group in G1 and G4 groups and 10 rats/sex/group in G2 and G3 groups. The toxicokinetic groups consisted of 6 males and 6 female rats each for the prevention groups, whereas the vehicle control group had 3 male and 3 female rats."}, "[2]": {"tested_on": "ion channels, including hERG potassium channels", "assay": "Effects on ion channels including hERG in CHO and HEK 293 cells", "assay_type": "cell-based", "text": "Torsadogenic refers to the development of torsade de Pointes (TdP) arrhythmias"}, "[3]": {"assay": "GLP dermal sensitization main study (Buehler test) in guinea pigs", "assay_type": "in vivo, guinea pig", "details": "24 or 48 hours after the challenge dose, 797 μM", "experimental": "A GLP-compliant dermal sensitization study was conducted with LPT99 in guinea pigs. The objective was to assess potential dermal sensitization of LPT99 using the Buehler test (Buehler, Arch Dermatol. 1965, 91, 171-7). The test article, LPT99, was in a neutral-pH, buffered, isotonic solution containing a thermoreversible compound. The vehicle control was buffered at neutral pH and formulated as for the test article; it contained POLOXAMER® 407, disodium phosphate dodecahydrate hydrogen, sodium dihydrogen phosphate dihydrate, sodium chloride, and water for injection. The main study consisted of 2 groups of 20 or 10 guinea pigs. Group 1 was 10 male and 10 female guinea pigs dosed with the highest concentration of LPT99, 797 μM, that was used in the dose range-finding substudy (Group 1). Group 2 was 5 male and 5 female animals that were not dosed with LPT99 (Group 2) during the induction phase and served as naïve controls; Group 2 was challenged with LPT99 on Day 28. LPT99 was topically administered to the skin in the shaved scapula area in a volume of 50 μL on Study Days 0, 7, and 14 (induction doses), and on Day 28 (challenge dose). […] The PDII (post-challenge) was calculated for the test article or vehicle by dividing the sum of the Total Irritation Score by the number of observations (e.g., 3 days×6 animals=18 (number of observations)."}, "[4]": {"assay": "Plasma concentrations after TT administration of LPT99-CD in female Wistar rats", "assay_type": "in vivo, rat"}, "[5]": {"assay": "Physical stability of drug product vials", "assay_type": "physicochemical", "details": "vials stored at 4C", "experimental": "Vials of the drug product were stored at either room temperature or 4° C. for a period greater than three months. To test the LPT99 concentration in vials, the liquid drug product was filtered through sterile 0.2 micron filters."}, "opioid kOP": {"tested_on": "opioid kOP", "assay": "Off-target panel: kOP", "assay_type": "binding", "experimental": "To identify off-target activities of LPT99, its selectivity against a panel of receptors (44 G-protein-coupled receptors [GPCR] and 4 non-GPCR), 4 ion channels, and 3 transporters were analyzed. The cell line, HEI-OC1 (house ear institute organ of Corti 1), which expresses several characteristic markers of the organ of Corti sensory cells (Kalinec, et al. , Audiol. Neurootol. 2003, 8(4), 177-89), was used to evaluate the efficacy of LPT99 in preventing apoptosis due to […]. Cells were pre-incubated with LPT99, followed by […] for 24 hours.\nFor 14 of the tested targets—adenosine receptor 3 (A3); cholecystokinin: cholecystokinin receptor 1 (CCK1); melatonin receptor (MT1); neurokinin (NK2 and NK3); opioid (kOP and mOP); serotonin receptors (5HT-1A, 5HT-2A, 5HT−2B and 5HT−7); and vasopressin (V1A; Na+channel site 2 and Cl-GABA-gated channel)—the LPT99 affinity was >50%. At 1 μM, the inhibition of 13 of these targets was <50%, indicating a very low affinity with LPT99."}, "[6]": {"tested_on": "noise-induced ABR threshold shift", "assay": "Noise trauma ABR threshold study", "assay_type": "in vivo", "details": "at 10 and 21 days; TRAUMA+LPT99 group"}, "[7]": {"assay": "Toxicokinetic assessment in the acute IP toxicity study", "assay_type": "in vivo, rat", "details": "all tested dose levels", "experimental": "as §2, §3\nGender related differences were observed."}, "[8]": {"assay": "GLP auditory safety study in rats after single TT administration", "details": "rat, in vivo", "experimental": "The study consisted of 10 groups of rats: 6 groups for toxicology (Groups 1 to 6, 20 males and 20 females per group), and 4 groups for toxicokinetics (Groups 7 to 10, 6 males and 6 females per group).\nAll animals were assessed weekly for body weights and qualitative food consumption. In addition, otoscopic evaluation of the dosing sites (tympanic membrane, Groups 1 to 6) and ABR testing for hearing function were performed at predosing; and on Days 1, 7, and/or 14. Animals in the toxicology groups (Groups 1 to 6) were sacrificed on Day 1 (10 males and 10 females per group) and Day 14 (the remaining 10 males and 10 females per group). At necropsy, terminal blood samples were tested for hematology, serum chemistry, and coagulation parameters. Gross observations were recorded, and selected organs were weighed. One ear per animal in Groups 1 to 5 was collected and processed for cytocochleogram assessment."}, "A549 cells": {"tested_on": "A549 cells", "assay": "Proliferation of non-apoptotic A549 cells (flow cytometry, doubling time)", "assay_type": "cell-based", "details": "A549 cells cultured up to 6 days; reversible on removal", "experimental": "as §1"}}}
{"smiles": "COc1ccc2[nH]cc(CCNC(=O)CC3C(=O)N(CCc4ccc(Cl)cc4Cl)CC(=O)N3CCc3cccs3)c2c1", "note": "(stereo not shown) [LPT99, 2-(4-(2,4-dichlorophenethyl)-3,6-dioxo-1-(2-(thiophen-2-yl)ethyl)piperazin-2-yl)-N-(2-(5-methoxy-1H-indol-3-yl)ethyl)acetamide]", "values": [{"measurement": "release of mitochondrial cyt c", "setting": "HEI-OC1 cells; HEI-OC1 cells, after CisPt alone or pre-incubated with LPT99", "value": "68.1% ±1.0%"}, {"measurement": "release of cyt c from mitochondria", "setting": "HEI-OC1 cells; cellular model of CisPt-induced apoptosis", "value": "decreased release of cyt c from mitochondria"}, {"measurement": "food consumption", "setting": "[1]; 750 mg/kg, males days 1-7, females days 1-4, vs control", "value": "statistically significant reduction in the food consumption"}, {"measurement": "tolerability", "setting": "[1]; single IP 100, 300, 750 mg/kg", "value": "generally safe and well tolerated"}, {"measurement": "torsadogenic risk", "setting": "[2]", "value": "low torsadogenic risk"}, {"measurement": "Draize scores", "setting": "[3]", "value": "No Draize scores were >0"}, {"measurement": "plasma concentration of 3.2 nM as fraction of administered dose", "setting": "[4]; 50 μM dose", "value": 0.006, "unit": "%"}, {"measurement": "plasma concentration of 3.2 nM as fraction of administered dose", "setting": "[4]; 100 μM dose", "value": 0.003, "unit": "%"}, {"measurement": "plasma concentration of 3.2 nM as fraction of administered dose", "setting": "[4]; 200 μM dose", "value": 0.0016, "unit": "%"}, {"measurement": "plasma level after TT administration (not detectable; detection limit)", "setting": "[4]; TT administration", "value": "< 3.2", "unit": "nM"}, {"measurement": "Plasma LPT99 concentrations (BLLQ)", "setting": "[4]; female Wistar rats, 1 hour and 2, 4, 7, 15 days after single 50 μL TT dose of 50, 100, or 200 μM LPT99-CD", "value": "< 2", "unit": "ng/mL"}, {"measurement": "time to LPT99 precipitation", "setting": "[5]", "value": "approximately 2 months"}, {"measurement": "inhibition kOP", "setting": "opioid kOP; 1 μM", "value": "< 50", "unit": "%"}, {"measurement": "affinity (inhibition) kOP", "setting": "opioid kOP; 10 μM", "value": "> 50", "unit": "%"}, {"measurement": "ABR Threshold shift after noise exposure", "setting": "[6]", "value": "back at basal levels"}, {"measurement": "exposure in females vs males", "setting": "[7]", "value": "1.5-5.5 fold"}, {"measurement": "hair cell loss (cytocochleogram)", "setting": "[8]", "value": "no reliable evidence of test-article-related hair cell loss"}, {"measurement": "otoscopic scores (erythema, edema, wounds) of tympanic membranes", "setting": "[8]", "value": "no statistically significant changes"}, {"measurement": "effect on proliferation of non-apoptotic cells", "setting": "A549 cells", "value": "delayed cellular proliferation by accumulation of cells at the G1 phase of the cell cycle"}]}
